Laboratory results reported in patent US10913932B2, “Maturation of mammalian hepatocytes” (Takara Bio Europe AB, priority 2015, dated 2021).

Assays:
OATP1B1 = OATP1B1 mRNA expression levels; format: cell-based, human; settings: protocol B plus compound compared to protocol A; day 36; protocol B alone also increases; FIG. 2 F
Protocol: Following the basic protocol B, ChiPSC4-derived hepatocytes cultured on a Collagen I-Fibronectin-based coating were treated with 0.5 μM 10Z-Heptadecenoic acid, 0.5 μM Arachidonic acid, 0.5 μM Calcitriol, 5 μM CGP 52608, 0.2 μM Cholecalciferol, 5 μM PP1, 0.5 μM D-erythro-Sphingosine, 0.2 μM 13 cis-RA, 0.5 μM L-erythro MAPP, 0.5 μM PAF C16, 0.5 μM C16 Ceramide, or different combinations of these compounds from day 21 of the differentiation protocol and onwards (FIG. 2).

[1] = system: ChiPSC4-derived hepatocytes; test: CYP activity assay, Example 4, basic protocol B; settings: single compounds 0.2-5 μM or combinations, from day 21 onwards, Collagen I-Fibronectin-based coating, day 29, FIG. 2 A-D
Protocol: (§1) On day 29 and 36 of the differentiation protocol, the cell cultures are subjected to a CYP activity assay according to the following protocol: Cells are washed twice with warm Williams's medium E w/o phenol red (+0.1% PEST). Then CYP activity assay, consisting of warm Williams medium E w/o phenol red (+0.1% PEST), 2 mM L-Glutamine, 25 mM HEPES, 10 μM Phenacetin (model substrate for CYP1A), 10 μM Bupropion (model substrate for 2B6), 10 μM Diclofenac (model substrate for CYP2C9), 10 μM Bufuralol (model substrate for 2D6), and 5 μM Midazolam (model substrate for CYP3A), is added to the cells (e.g. 110 μl/cm^2) and incubated for 16 hr at 37° C. Then 100 μl of the supernatant is transferred into a 96 well plate which is sealed with a tight seal tape and stored at −80° C. until LC/MS-analysis of metabolite formation: Acetaminophen (Paracetamol) for CYP1A, OH-Bupropion for CYP2B6, OH-Diclofenac for CYP2C9, OH-Bufuralol for CYP2D6, and OH-Midazolam for CYP3A. […]
On day 29 of the differentiation protocol, the cell cultures are subjected to a CYP activity assay according to the protocol described in Example 3. In some experiments, 50 μM Mephenytoin (model substrate for 2C19) was included additionally to the substrates mentioned above and then the formation of the metabolite OH-Mephenytoin was measured by LC/MS in order to determine CYP2C19 activity.

[2] = system: hiPS cell-derived hepatocytes; test: CYP activity assay (LC/MS metabolite formation), Example 3, basic protocol A; settings: single compounds, 0.2-50 μM, from day 21 onwards, Fibronectin-based coating, day 29 and 36, FIG. 1
Protocol: Following the basic protocol A, hiPS cell derived hepatocytes cultured on a Fibronectin-based coating were treated with 0.5 or 5 μM 10Z-Heptadecenoic acid, 0.5 or 5 μM Arachidonic acid, 5 μM Calcifediol, 5 μM Calcitriol, 0.2 or 0.5 μM Cholecalciferol, 5 or 50 μM CGP 52608, 0.5 or 5 μM Docosahexaenoic acid, 0.5, 1.25, 2.5, 5, or 10 μM PP1, 0.5 or 5 μM PP2, 0.5 or 5 μM D-erythro-Sphingosine, or 0.5 or 5 μM Tetradecanoic acid from day 21 of the differentiation protocol and onwards (FIG. 1).
as §1, with “C.” for “C. Then 100 μl of the supernatant is transferred into a 96 well plate which is sealed with a tight seal tape and stored at −80° C. until LC/MS-analysis of metabolite formation: Acetaminophen (Paracetamol) for CYP1A, OH-Bupropion for CYP2B6, OH-Diclofenac for CYP2C9, OH-Bufuralol for CYP2D6, and OH-Midazolam for CYP3A.”

Structure (SMILES) | OATP1B1 mRNA levels (OATP1B1) | CYP activity levels [1] | CYP activity levels [2]
CCCCCC/C=C\CCCCCCCCC(=O)O [10Z-Heptadecenoic acid, 10Z-heptadecenoic acid] | increase | – | –
CC1=C(/C=C/C(C)=C/C=C/C(C)=C\C(=O)O)C(C)(C)CCC1 [13 cis-RA, 13-cis-retinoic acid] | – | increase CYP activity levels | –
C=C1CC[C@H](O)C/C1=C/C=C1\CCC[C@]2(C)[C@@H]([C@H](C)CCCC(C)C)CC[C@@H]12 [Cholecalciferol, cholecalciferol] | – | increase CYP activity levels | increase CYP activity levels
CC(C)(C)n1nc(-c2ccc(Cl)cc2)c2c(N)ncnc21 [PP2, 3-(4-chlorophenyl) 1-(1,1-dimethylethyl)-1H-pyrazolo[3,4-d]pyrimidin-4-amine] | – | – | increase CYP activity levels
